Measured values taken from patent publication US20060116318A1, “Preptin methods of use” (priority 2002, published 2006).
Entries after “also recorded” stand apart in the source; their conditions may differ. Read-outs that look alike come from different tables or passages of the source.

Assays:
[1] = tested on: primary fetal rat osteoblasts; test: Proliferation (cell number, [3H]-thymidine incorporation) of fetal rat osteoblast-like cells; type: cell-based
Description: Osteoblast-Like Cell Culture. Osteoblasts were isolated from 20 day fetal rat calvariae as previously described (Cornish et al. (1999) American Journal of Physiology Endocrinology & Metabolism 277: E779-E783). Briefly, calvariae were excised and the frontal and parietal bones, free of suture and periosteal tissue, were collected. The calvariae were sequentially digested using collagenase and the cells from digests 3 and 4 were collected, pooled and washed. Cells were grown to confluence and then subcultured into 24 well plates. Cells were growth arrested in minimum essential medium (MEM)/0.1% bovine serum albumin for 24 h. Fresh media and experimental compounds were added for a further 24 h. Cells were pulsed with tritiated-thymidine two hours before the end of the experimental incubation. The effect of preptin on proliferation of fetal rat osteoblast-like cells was first assessed by the measurement of cell numbers. The effect of preptin on DNA synthesis in osteoblasts was then assessed by the measurement of [^3H]-thymidine incorporation into isolated fetal rat osteoblast-like cells. There were 6 wells in each group and each experiment was repeated 3 or 4 times.

[2] = tested on: murine bone marrow cultures; test: Osteoclastogenesis assay in murine bone marrow cultures (TRAP-positive multinucleated cells); type: cell-based, mouse; details: various concentrations; 7 days; with 1α,25-dihydroxyvitamin D3; FIG. 4
Description: The effects of preptin on the development of osteoclasts was also examined. To assess osteoclast development, bone marrow is obtained from the long bones of normal mice, aged 4-6 weeks and cultured. Non-adherent cells are removed and the cultures are grown in the presence of 1α,25-dihydroxyvitamin D3 throughout the experiment. The cultures were maintained for 7 days and the number of tartrate-resistant acid phosphatase-positive multinucleated cells was assessed. An osteoclastogenesis assay was performed with murine bone marrow cultures in the presence of various concentrations of rat preptin. The number of tartrate-resistant acid phosphatase (TRAP)-positive multinucleated cells was assessed (FIG. 4).

[3] = tested on: murine neonatal calvarial organ culture; test: Thymidine incorporation in murine neonatal calvarial organ culture; type: cell-based, mouse; details: FIG. 3 (rat preptin, two concentrations)
[4] = tested on: murine neonatal calavarial organ culture system; test: Bone resorption in murine neonatal calvarial organ culture; type: cell-based, mouse; details: data not shown
primary rat osteoblasts = test: TUNEL assay of apoptosis in serum-deprived primary rat osteoblasts; type: cell-based; details: 10^−8 M; apoptosis induced by serum deprivation; 18 h; FIG. 6
Description: Immunoblotting (Cell Signalling Methods). Primary rat osteoblasts prepared as described above were seeded in 6-well tissue culture plates at an initial density of 5×10^4 cells/mL in MEM 5% FCS, and grown to 80-90% confluence. After serum starvation overnight, cells were treated at room temperature with test substances in MEM 0.1% BSA. In experiments designed to determine the effect of inhibitors of signal transduction on preptin-induced p42/44 MAP kinase phosphorylation, the cells were pre-treated with the inhibitor for 30 min prior to addition of test substances. The exception was pertussis toxin, which was added 18 h prior to test substances. […] The lysates were briefly vortexed, clarified by centrifugation at 13,000 rpm at 4° C., then stored at −70° C. until analyzed. Protein content of the cell lysates was measured using the DC protein assay (BioRad, Hercules, Calif.). […] Incubation with the HRP-conjugated secondary antibody was for 1 h at room temperature, and the membranes were analyzed by ECL. […] Apoptosis in cultures of primary rat osteoblasts was assessed using the TUNEL method (DeadEnd™, Promega, Madison, Wis.) according to the manufacturer's instructions. […] After counterstaining with hematoxylin, the number of apoptotic nuclei per microscopic field was counted and expressed as a proportion of that observed in the cells exposed to serum starvation throughout the entire treatment period. […]

[5] = tested on: long-term osteoblast cultures; test: Osteoblast differentiation, mineralized bone nodules in long-term osteoblast cultures; type: cell-based; details: 10^−8M
[6] = tested on: sexually mature male mice; test: Local subcutaneous injection over the hemicalvaria, histomorphometry; type: in vivo; details: for Bone Area, Mean ± Std Error: twice daily s.c. over right hemicalvaria; for Bone Area, Mean ± Std Error / % Mineralizing Surface/Total Bone Surface, Mean ± Std Error: 5 days; for % Mineralizing Surface/Total Bone Surface, Mean ± Std Error: twice daily s.c.
Description: Three groups of sexually mature male mice were given twice daily subcutaneous injections over the right hemicalvaria for 5 consecutive days. Two groups received one of 2 doses of preptin (0.825 μg or 8.25 μg per injection), and a further […] received vehicle. The animals were sacrificed 1 week following the last injection. Fluorochrome labels were injected subcutaneously at the base of the tail on days 1 (calcein), 5 (alizarin red) and 14 (calcein) to measure dynamic histomorphometric indices (such as, extent of mineralizing surface). Calvariae were excised, fixed in 10% neutral-buffered formalin, dehydrated and embedded in methylmethacrylate resin. Sections were cut, mounted on gelatin-coated slides, and histomorphometric indices measured using image analysis.

[7] = tested on: isolated, perfused rat pancreas; details: infusion into isolated, Buchanan et al. 2001; cited from earlier work
[8] = primary osteoblasts pre-treated with inhibitor, FIG. 5A, 5B
[9] = high dose, 16.5 micrograms daily for five days, local s.c. injection

COc1cccc(-c2cc(=O)c3ccccc3o2)c1N [PD-98059]
effect of inhibitor pre-treatment on the proliferative effects of preptin [1, 8]: blocked

N#CC(=C(/N)Sc1ccccc1N)/C(C#N)=C(\N)Sc1ccccc1N [U-0126]
effect of inhibitor pre-treatment on the proliferative effects of preptin [1]: blocked

DVSTSQAVLPDDFPRYPVGKFFKFDTWRQSAGRL (Rattus) [rat preptin]
osteoclast development (number of TRAP-positive multinucleated cells) [2]: did not affect osteoclast development

pertussis toxin
effect of inhibitor pre-treatment on the proliferative effects of preptin [1, 8]: blocked

preptin: 34-amino acid peptide corresponding to Asp69-Leu102 of proinsulin-like growth factor II; species form not always stated
concentrations stimulating proliferation (cell number and DNA synthesis) ([1]; dose-dependent, primary fetal rat osteoblasts and osteoblast-like cell lines, 24 h, FIGS. 1 and 2 (rat and human preptin)): > 10^−11 M | thymidine incorporation [3]: stimulated | bone resorption [4]: did not affect bone resorption | apoptosis, treatment/control ratio (primary rat osteoblasts): 0.78±0.08 | osteoblast differentiation, number of mineralized bone nodules [5]: significantly increasing the number of mineralized bone nodules | Bone Area, Mean ± Std Error ([6]; high dose (8.25 μg per injection), P = 0.013 vs control 1.028 ± 0.023): *1.084 ± 0.017 | % Mineralizing Surface/Total Bone Surface, Mean ± Std Error ([6]; high dose (8.25 μg per injection), P = 0.046 vs control 1.048 ± 0.013): *1.119 ± 0.032% | bone area compared to control (in words) [6, 9]: significant increase; also recorded: increased | mineralizing surface compared to control (in words) [6, 9]: significant increase; also recorded: increased | Bone Area, Mean ± Std Error ([6]; low dose (0.825 μg per injection), control 1.028 ± 0.023): 1.083 ± 0.027 | % Mineralizing Surface/Total Bone Surface, Mean ± Std Error ([6]; low dose (0.825 μg per injection), control 1.048 ± 0.013): 1.065 ± 0.033% | second phase of insulin secretion [7]: significant increase
